Target: T1, CmNAGase (Chitinolyticbacter meiyuanensis, UniProt A0A7D5C7R1)
T1 construct: full length, 836 residues (2508 bp), no signal peptide predicted, C-terminal His6-tag, pET-28a(+), E. coli BL21(DE3), 92 kDa; native peptides […], […], […]; catalytic D508, E509
Experiment: pNP release at […] nm, Lineweaver-Burk
Assay type: biochemical
Details: 50 mM sodium citrate, pH 5.4, 40 °C, 50-1000 μM substrate

T1 sequence (A0A7D5C7R1 entry or part of it): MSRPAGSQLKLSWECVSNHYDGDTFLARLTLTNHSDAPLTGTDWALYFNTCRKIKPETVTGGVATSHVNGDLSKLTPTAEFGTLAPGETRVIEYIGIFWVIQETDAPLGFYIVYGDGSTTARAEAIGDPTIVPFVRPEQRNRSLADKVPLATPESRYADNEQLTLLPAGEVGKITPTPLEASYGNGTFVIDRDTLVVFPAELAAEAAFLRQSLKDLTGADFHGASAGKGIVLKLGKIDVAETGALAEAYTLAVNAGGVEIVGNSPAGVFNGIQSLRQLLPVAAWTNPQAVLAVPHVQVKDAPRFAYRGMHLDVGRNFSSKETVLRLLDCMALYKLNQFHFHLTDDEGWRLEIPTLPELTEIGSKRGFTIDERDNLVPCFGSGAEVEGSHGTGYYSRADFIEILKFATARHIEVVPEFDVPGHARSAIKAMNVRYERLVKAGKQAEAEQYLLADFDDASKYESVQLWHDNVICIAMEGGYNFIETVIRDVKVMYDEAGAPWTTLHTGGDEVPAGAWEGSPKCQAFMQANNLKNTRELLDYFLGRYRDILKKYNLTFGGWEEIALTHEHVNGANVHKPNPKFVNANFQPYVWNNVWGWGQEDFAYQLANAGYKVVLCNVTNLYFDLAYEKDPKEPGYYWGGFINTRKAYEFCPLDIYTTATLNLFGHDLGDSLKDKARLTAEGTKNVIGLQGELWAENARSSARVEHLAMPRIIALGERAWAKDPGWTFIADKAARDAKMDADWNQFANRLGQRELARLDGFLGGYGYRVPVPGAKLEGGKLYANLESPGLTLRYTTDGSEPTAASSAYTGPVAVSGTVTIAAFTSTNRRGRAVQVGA

Work on `CC(=O)N[C@H]1[C@H](Oc2ccc([N+](=O)[O-])cc2)O[C@H](CO)[C@@H](O)[C@@H]1O` [pNP-GlcNAc] yielded a Km of 500 µM.

Reference: article PMC7324980, “A novel bacterial β-N-acetyl glucosaminidase from Chitinolyticbacter meiyuanensis possessing transglycosylation and reverse hydrolysis activities” (Biotechnology for Biofuels, 2020)
